# pEC50, pIC50: −log10 of the molar value. Values joined by “and” are separate entries in the source; they are usually repeats but may differ in a detail not shown here. Identical values can stand only once. Like-named read-outs stand apart in the source and are kept apart here.
# Experiments:
# SARS-CoV-2 PLpro [1] = target: T1, SARS-CoV-2 PLpro (Severe acute respiratory syndrome coronavirus 2, UniProt P0DTD1); test: cell-based; type: cell-based
# SARS-CoV-2 PLpro [2] = target: T1, SARS-CoV-2 PLpro
# SARS-CoV-2 PLpro [3] = target: T1, SARS-CoV-2 PLpro; test: biochemical; design: inhibition of SARS-CoV-2 PLpro, UbRh dose-response replicate value: unit: %; settings: for pIC50: IC50 (UbRh) SARS-CoV-2 PLpro
# [4] = tested on: SARS-CoV-2 clinical isolate VIC001; test: microbe, parasite or virus in culture; type: cell-based; settings: for pEC50: Severe acute respiratory syndrome coronavirus 2, Vero
# CYP3A4/5 [5] = test: in vitro; settings: human, microsomes
# CYP3A4/5 [6] = test: in vitro; settings: human, microsomes, pH 7.4, CYP3A4/5 IC50
# CYP3A4/5 [7] = settings: human, microsomes
# CYP3A4/5 [8] = settings: human, microsomes, pH 7.4
# CYP2C8 = CYP2C8 (Homo sapiens, UniProt P10632); settings: microsomes
# SARS-CoV-2 P2 strain = tested on: SARS-CoV-2 P2 strain; design: species or system C57BL/6 (WT) mice; settings: mouse, in vivo
# CYP2B6 = CYP2B6 (Homo sapiens, UniProt P20813); test: biochemical
# [9] = read-out: Antiviral EC50 (plaque assay)
# Chain of CYP2B6 (P20813 whole entry): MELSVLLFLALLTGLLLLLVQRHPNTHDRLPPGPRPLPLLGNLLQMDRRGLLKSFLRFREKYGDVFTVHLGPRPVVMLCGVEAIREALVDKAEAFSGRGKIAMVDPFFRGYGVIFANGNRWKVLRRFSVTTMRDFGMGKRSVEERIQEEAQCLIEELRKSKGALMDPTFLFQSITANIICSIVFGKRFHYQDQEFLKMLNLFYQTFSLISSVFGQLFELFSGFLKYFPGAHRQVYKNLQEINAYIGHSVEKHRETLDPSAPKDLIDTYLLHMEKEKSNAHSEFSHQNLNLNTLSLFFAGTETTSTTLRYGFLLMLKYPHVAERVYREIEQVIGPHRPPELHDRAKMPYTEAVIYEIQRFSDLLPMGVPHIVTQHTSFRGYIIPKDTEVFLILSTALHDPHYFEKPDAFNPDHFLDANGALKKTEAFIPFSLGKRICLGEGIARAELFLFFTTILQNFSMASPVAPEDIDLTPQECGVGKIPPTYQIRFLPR
# Chain of CYP2C8 (P10632 whole entry): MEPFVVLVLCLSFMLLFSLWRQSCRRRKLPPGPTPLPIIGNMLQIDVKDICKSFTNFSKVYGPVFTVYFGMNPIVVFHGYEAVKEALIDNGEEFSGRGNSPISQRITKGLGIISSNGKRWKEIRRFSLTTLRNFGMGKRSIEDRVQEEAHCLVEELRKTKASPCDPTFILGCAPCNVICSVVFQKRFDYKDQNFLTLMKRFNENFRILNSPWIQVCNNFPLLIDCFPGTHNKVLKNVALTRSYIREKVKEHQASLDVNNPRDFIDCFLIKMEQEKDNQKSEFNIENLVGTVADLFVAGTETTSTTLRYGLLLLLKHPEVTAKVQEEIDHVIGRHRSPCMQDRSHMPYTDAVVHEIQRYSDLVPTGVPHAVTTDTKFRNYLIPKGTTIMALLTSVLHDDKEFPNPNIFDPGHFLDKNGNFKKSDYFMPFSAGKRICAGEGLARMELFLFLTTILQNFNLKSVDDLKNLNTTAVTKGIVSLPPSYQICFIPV
molecule,measurement,setting,value
CO/N=C(/c1ccc2cc(OC)ccc2c1)C1CCCN(C2CCCC2)C1 (stereo not shown) [WEHI-P2],pEC50,SARS-CoV-2 PLpro [1],4.96
same,FRET EC50 (cellular),SARS-CoV-2 PLpro [1],micromolar cellular activity
same,Molar Mass (kDa),SARS-CoV-2 PLpro [2],34.0141 kDa and 34.3179 kDa and 34.334 kDa
same,observed molar mass of PLpro (SEC-MALS),SARS-CoV-2 PLpro [2],34.2 kDa
same,IC50 (UbRh) SARS-CoV-2 PLpro,SARS-CoV-2 PLpro [3],submicromolar
same,"inhibition of SARS-CoV-2 PLpro, UbRh dose-response replicate value",SARS-CoV-2 PLpro [3]; Conc 0.00498 µM,-15.8303 and -11.7404 and -10.1452 and -13.4396 and 0.4248 and 3.42 and -8.071 and -0.3979
same,"inhibition of SARS-CoV-2 PLpro, UbRh dose-response replicate value",SARS-CoV-2 PLpro [3]; Conc 0.0149 µM,-13.9221 and -7.6283 and -8.496 and -15.6937 and -2.169 and 1.092 and -11.0387 and -1.093
same,"inhibition of SARS-CoV-2 PLpro, UbRh dose-response replicate value",SARS-CoV-2 PLpro [3]; Conc 0.0448 µM,-10.8825 and -7.692 and -10.0063 and -17.0131 and 5.235 and 6.569 and -0.8163 and 5.0409
same,"inhibition of SARS-CoV-2 PLpro, UbRh dose-response replicate value",SARS-CoV-2 PLpro [3]; Conc 3.63 µM,108.558 and 106.946 and 112.788 and 102.006 and 101.573 and 101.518 and 102.655
same,inhibition at 3.63 µM,"SARS-CoV-2 PLpro [3]; Conc 3.63 µM, read-out: inhibition of SARS-CoV-2 PLpro, UbRh dose-response replicate value",110%
same,"inhibition of SARS-CoV-2 PLpro, UbRh dose-response replicate value",SARS-CoV-2 PLpro [3]; Conc 98 µM,126.525 and 125.26 and 122.237 and 129.703 and 110.886 and 110.306 and 111.038 and 109.523
same,"inhibition of SARS-CoV-2 PLpro, UbRh dose-response replicate value",SARS-CoV-2 PLpro [3]; Conc […],108.844
same,pIC50,SARS-CoV-2 PLpro [3],6.40
same,pIC50,SARS-CoV-2 PLpro [3]; Supplementary Fig. 2b,6.19
same,inhibition at […],"SARS-CoV-2 PLpro [3]; read-out: inhibition of SARS-CoV-2 PLpro, UbRh dose-response replicate value",127% and 123% and 74.5%
same,pEC50,[4]; [9],< 5.70
"CC(=O)N1CCN(c2ccc(OCC3COC(Cn4ccnc4)(c4ccc(Cl)cc4Cl)O3)cc2)CC1 (stereo not shown) [Ketoconazole, reference compound]",IC50 shift,CYP3A4/5 [5]; Fold Shift IC50 (-NADPH) / IC50 (+NADPH),0.8
same,pIC50,CYP3A4/5 [5]; Time dependent CYP3A4/5 IC50 + NADPH,7.80
same,pIC50,CYP3A4/5 [5]; Time dependent CYP3A4/5 IC50 - NADPH,7.89
same,pIC50,CYP3A4/5 [6],8.00
same,Fold Shift IC50 (-NADPH) / IC50 (+NADPH),CYP3A4/5 [7],0.68
same,pIC50,CYP3A4/5 [7],8.08
same,pIC50,CYP3A4/5 [8],7.96
quercitin [reference compound],pIC50,CYP2C8,5.64
"CC(C)(C)[C@H](NC(=O)C(F)(F)F)C(=O)N1C[C@H]2[C@@H]([C@H]1C(=O)N[C@H](C#N)C[C@@H]1CCNC1=O)C2(C)C [Nirmatrelvir, nirmatrelvir, reference compound]","antiviral activity (lung viral burden), mild model",SARS-CoV-2 P2 strain,no antiviral activity
same,pEC50,[4]; [9],< 5.70
same,pEC50,[4]; read-out: Antiviral EC50 (plaque assay) with Pgp inhibitor,6.28
same,Ext Data Fig 2f dose response (0 µM = 100),[4]; concentration 0.01 µM,108.0460 and 101.2658 and 103.7975 and 95.0617 and 93.8272 and 95.6522
same,Ext Data Fig 2f dose response (0 µM = 100),[4]; concentration 0.02 µM,90.8046 and 108.8608 and 111.3924 and 104.9383 and 98.7654 and 104.3478
same,Ext Data Fig 2f dose response (0 µM = 100),[4]; concentration 0.04 µM,97.7011 and 96.2025 and 105.0633 and 97.5309 and 90.1235 and 85.5072
same,Ext Data Fig 2f dose response (0 µM = 100),[4]; concentration 0.08 µM,93.1034 and 89.8734 and 106.3291 and 109.8765 and 100.0000 and 102.8986
same,Ext Data Fig 2f dose response (0 µM = 100),[4]; concentration 0.3 µM,104.5977 and 108.8608 and 102.5316 and 58.0247 and 83.9506 and 71.0145
"CC(C)(c1ccccc1)N1CCCCC1 [2-phenyl-2-(1-piperidinyl) propane, reference compound]",pIC50,CYP2B6,5.05
"CC(C)c1nc(CN(C)C(=O)N[C@H](C(=O)N[C@@H](Cc2ccccc2)C[C@H](O)[C@H](Cc2ccccc2)NC(=O)OCc2cncs2)C(C)C)cs1 [ritonavir, reference compound]","antiviral activity (lung viral burden), mild model",SARS-CoV-2 P2 strain,no antiviral activity

# Source: paper PMC11969009 (Nature Communications, 2025)
